In patent US20120040976A1, “SMALL MOLECULE IMMUNOMODULATORS FOR ALZHEIMER'S DISEASE” (HUMAN BIOMOLECULAR RESEARCH INSTITUTE, priority 2008, published 2012):

Tests used:
[1] = test system: TLR2; test: TLR2 gene expression by qPCR in U-937 human monocytic cells treated with curcumins plus Aβ; type: cell-based; conditions: human monocytic cells (U-937), curcumin plus Aβ
Method: Cell culture conditions for monocytic cell lines. Human and mouse monocyte cell lines are grown in RPMI-1640 medium with 10% fetal bovine serum (FBS), plus glutamine and pen/strep. For treatment with compounds (curcuminoids+/−Aβ), replicate sets of 0.5-1.0 mL cultures containing 1-2×10^6 cells are set up in the wells of 48-well tissue culture plates. Both replicate sets have at least one control well receiving no added curcuminoid to provide baseline expression controls for untreated, and Aβ-only treated cells. Remaining wells receive curcuminoid in a range of 10-fold serial dilutions in DMSO, typically from […] Cultures are incubated for 20-24 hours (“overnight”) at 37° C. in atmosphere with 5% CO2. After one overnight, to one of replicate sets of cultures is added Aβ (1-42) peptide to a final concentration of 5 μg/mL.
RNA isolation and cDNA synthesis. After the first overnight incubation in the presence of curcuminoid, cells from one replicate set of wells are collected by centifugation. RNAs are extracted from pelleted cells using miniprep column kits following manufacturer's protocol for animal cells. […] of total cellular RNA from each well is quantitated using a Nanodrop spectrophotometer, and first-strand total cDNA is prepared from 0.3-1.0 μg RNA by random-hexamer priming. Following the second 20 hr. incubation in the presence of Aβ, RNA extractions and cDNA synthesis are similarly performed.
Assay development. Gene-specific mRNA levels are determined using a real-time thermocycler, and by normalizing to expression of one or more control genes. Assays for quantifying mRNA levels are based on gene sequences reported in NCBI Genbank. PCR oligonucleotide primers are selected spanning introns to minimize the opportunity for amplication from any contaminating genomic DNA in the RNA preps. Oligonucleotides are typically tested and used at a concentration of 200 nM in qPCR reactions containing SYBR dye. Control reactions include template from cDNA synthesis reactions either + or − reverse transcriptase (RT), as well as no-template controls (ntc). All reactions are performed in triplicate. Reactions are typically run with 40 cycles of 95° C. (10 sec) and 58° C. (30 sec). Melt curves based on incremental 0.5° C. increases are determined for new assays to test for uniformity of amplified products. Reaction conditions are modified as needed depending on initial test results. ‘Working’ assays are selected based on clear RNA-dependent amplification and absence of product in ‘ntc’ reactions. The following assay primers are used: […]
qPCR reactions of cultured monocyte cDNAs. One μL total cellular cDNA per reaction is used in triplicate reactions for each test gene, and for each culture treatment. SYBR-Green reactions were run on a Continuous Fluorescence real-time thermocycler and analyzed. Cycle threshold (Ct) values are recorded for each replicate reaction, and are then averaged and normalized against mean Ct values from one or more control genes. Fold-expression differences relative to untreated cells are determined using the 2^−ΔΔCt method as previously described. […] Data are also evaluated for each gene with regard to sensitivity, maximally effective concentration of curcuminoid, response to Aβ, and overall magnitude of fold-expression changes. […]

[2] = Average permeability; type: in vitro ADME; conditions: not told
[3] = test system: TLR 9; test: TLR 9 transcription ratio, AD patient / control PBMCs (qPCR); type: cell-based, human; conditions: Aβ stimulation
Method: qPCR reactions of cultured monocyte cDNAs. One μL total cellular cDNA per reaction is used in triplicate reactions for each test gene, and for each culture treatment. SYBR-Green reactions were run on a Continuous Fluorescence real-time thermocycler and analyzed. Cycle threshold (Ct) values are recorded for each replicate reaction, and are then averaged and normalized against mean Ct values from one or more control genes. Fold-expression differences relative to untreated cells are determined using the 2^−ΔΔCt method as previously described. Data from the curcumin concentration range are plotted in order to determine EC50 values (concentrations producing one-half maximal stimulant activity), which are used for comparisons of potency between different compounds. Data are also evaluated for each gene with regard to sensitivity, maximally effective concentration of curcuminoid, response to Aβ, and overall magnitude of fold-expression changes.
MGAT3 and/or TLR transcription were tested by qPCR in human monocyte cells treated with curcuminoids and compared the results to those treated with vehicle (Table 7). As discussed above, activation or up-regulation of macrophage MGAT3 or TLR's results in many functional outcomes, including the enhancement of […] and removal of Aβ, increased apoptosis, secretion of inflammatory cytokines, and other anti-AD antimicrobial activities. […]

[4] = test system: human monocytic cell line U-937; test: Protection of U-937 cells against oxidative stress (H2O2, Trypan-blue viability); type: cell-based
Method: Protective effect of curcumin against oxidative stress. We tested the potential of curcumin to protect cells in vitro under conditions of oxidative stress. Natural curcumin has been reported to have antioxidant activity and to scavenge free radicals, but reports of the direct effects of curcumin or analogs upon cell viability under conditions of oxidative stress are limited. Viability of the human monocytic cell line U-937 was evaluated in the presence of H2O2, plus varying concentrations of natural BDC (range 0-10 nM). We observed that these cells are more sensitive to oxidative stress than are the neuroblastoma SHSY5Y cells, and so reduced concentrations of H2O2 were used for this experiment. […] However, concentrations of BDC between 0.1-10 nM (i.e. similar concentration range inducing maximal gene expression increases +Aβ in these cells) increased 2-hour cell survival rates up to 90%. […] Assays such as Trypan-blue staining, or other biochemical measures of cell toxicity/survival (e.g. ATP levels) may be useful for evaluating curcumin analogs for their neuroprotective effects against oxidative stress and as candidate AD or ALS drugs.

In the case of O=C(/C=C(O)/C=C/c1ccc(O)cc1)/C=C/c1ccc(O)cc1 [Compound 1, 5-Hydroxy-1,7-bis-(4-hydroxy-phenyl)-hepta-1,4,6-trien-3-one, reference compound], the “Relative gene expression TLR2, increased expression relative to control cells” value [1] is reported as “+ ((+) <20-fold)”, the Papp [2] is reported as 305 ± 9 ×10⁻⁶ cm/s and the “Relative ratio of TLR 9 transcription in AD patient / control PBMC's” value [3] is reported as “TLR 9 ++ ((++) indicates a ratio of 1.5-2.0)”. The “2-hour cell survival rate” value ([4]; U-937, 100 μM H2O2, BDC 0.1-10 nM, Trypan-blue) was “up to 90%” and the “Cell viability above 0.1-10 nM concentration range” value ([4]; U-937, in combination with H2O2) was “decreased”.
